Test results from patent US20020040203A1, “Method for transdermal or intradermal delivery of molecules” (priority 2000, published 2002).

How the values were obtained:
[1] = Transport of model molecules through heat-stripped porcine stratum corneum by electroporation, Hanson Vertical Diffusion chamber; format: in vitro ADME; details: for transport across the SC to the acceptor chamber: negative pulses 375V, 1 msec, 1 Hz, up to 30 min
Protocol: Stratum corneum layer was obtained from porcine skin by heat treatment as follows. Fresh pieces of porcine skin were wrapped in aluminum foil and placed in a 60° C. water bath for 5 minutes. The SC was gently pulled away from the remaining tissue. The SC can be used directly or stored on glass microscope slides at 4° C. The SC was then used in a Hanson Vertical Diffusion chamber. This simple device is an accepted model system for studying transport through skin by those skilled in the art. This device contains two compartments which are filled with a suitable buffer (10 mM Tris, 100 mM NaCl, 1 mM EDTA at pH 8.0). One of the compartments acts as the donor and the other as the acceptor. The liposomes and the test molecule are added to the donor chamber. The outermost layer of the skin, the SC forms an effective barrier to the transport of biomolecules. The upper chamber was considered as the outer surface of the skin and the lower chamber as the skin directly below the SC. Platinum wires served as electrodes, one was placed in the upper chamber and the other in the lower chamber. Electric pulses were applied across the SC using a pulse generator.
Lipid formulations were prepared as follows. Dioleylphosphatidylglycerol and dioleylphosphatidyl choline was mixed at an approximate 1:1 molar ratio and dispersed in buffer by vigorous vortexing resulting in the formation of multilamellar lipid vesicles (MLV). The molecular weights of the molecules tested range from 200 to 600. The model molecules were chosen for their charge and their respective solubility.
[…] The model molecule as a solution in buffer was then added to the upper chamber. During the next 10 min no pulses were applied. An aliquot of the buffer was removed from the lower (acceptor) chamber. Pulses were next applied for 10, 20 and 30 min and aliquots removed from the lower chamber for analysis at 10, 20 and 30 min to determine delivery of the model molecule. Another aliquot was removed from the lower chamber 10 min after cessation of pulse application. In control studies, the SC was pre-pulsed for 10 min with buffer only (no lipid) and then the model molecule added in the upper chamber and pulsed for three further periods of 10 min each.
The amount of the model molecule transported to the acceptor chamber was measured in the aliquots removed at different times by using fluorescence spectroscopy.

[2] = cited from earlier work; for charge: pH 8 stated for PP-IX
[3] = cited from earlier work
[4] = SC pre-treated with DOPG:DOPC lipid formulation
[5] = absence of lipid formulation (pre-pulsed with buffer only)

effect of lipid formulation on transport ([1]; pulses of positive polarity, DOPG:DOPC MLV present)	Compound	transport across the SC to the acceptor chamber [1, 4]	transport across the SC to the acceptor chamber [1, 5]	concentration in the lower chamber after cessation of pulse application ([1]; negative pulses, SC pre-treated with lipid formulation, 10 min without pulse)	charge [2]	solubility [2]	log P (partition coefficient between octanol and water) [3]
inhibited the transport of MB	CN(C)c1ccc2nc3ccc(=[N+](C)C)cc-3sc2c1 [MB, Methylene Blue]	large amount of MB transported across the SC	very little MB present in the acceptor chamber	continued increase in MB concentration in the lower chamber	positively charged		
	C=CC1=C(C)c2cc3[nH]c(cc4nc(cc5[nH]c(cc1n2)c(C)c5CCC(=O)O)C(CCC(=O)O)=C4C)c(C)c3C=C [PP-IX, protoporphyrin IX]	an increase in the transport in the presence of the added lipid	significant transport of PP-IX across the SC			low solubility	
	bleomycin						very negative
	methylated protoprophyrin IX [MPP-IX]	enhanced transport	very low transport		no charge	soluble only in the presence of detergents	
